This is an account of results in ChEMBL document CHEMBL3813632, “Thiazolo[3,2-a]benzimidazol-3(2H)-one derivatives: Structure-activity relationships of selective nucleotide pyrophosphatase/phosphodiesterase1 (NPP1) inhibitors” (Bioorg Med Chem, 2016).

Data set [1] can be described thus: Drug metabolism of the compound in MgCl2/CaCl2/CHES buffer assessed as 2-hydroxy-3-(5-iodofuran-2-yl)-1-(2-thioxo-2,3-dihydro-1H-benzo[d]imidazol-1-yl)prop-2-en-1-one metabolite formation at pH 9 after 24 hrs by LC-MS analysis. It is filed as physicochemical. Conditions: pH 9, 24 h.
The nature of data set [2]: Chemical stability of the compound assessed as compound remaining at pH 9 at 37 degC after 8 hrs by HPLC-MS analysis. It is filed as physicochemical. Conditions: buffer, read-out: Stability.
The species named for data set [3] is Homo sapiens. The data set can be described thus: Selectivity ratio of Ki for human recombinant soluble NTPDase1 to Ki for human recombinant NPP1.
In data set [4] the target is 5'-nucleotidase (Homo sapiens) (UniProt P21589). As to the kind of experiment: Inhibition of human recombinant Ecto-5'-nucleotidase expressed in CHO cells using AMP as substrate at >100 uM preincubated with substrate followed by protein addition and subsequent incubation for 30 mins by capillary electrophoresis.
Data set [5] has as its target T1, Ectonucleotide pyrophosphatase/phosphodiesterase family member 1 (Homo sapiens) (UniProt P22413).
T1 sequence (whole entry): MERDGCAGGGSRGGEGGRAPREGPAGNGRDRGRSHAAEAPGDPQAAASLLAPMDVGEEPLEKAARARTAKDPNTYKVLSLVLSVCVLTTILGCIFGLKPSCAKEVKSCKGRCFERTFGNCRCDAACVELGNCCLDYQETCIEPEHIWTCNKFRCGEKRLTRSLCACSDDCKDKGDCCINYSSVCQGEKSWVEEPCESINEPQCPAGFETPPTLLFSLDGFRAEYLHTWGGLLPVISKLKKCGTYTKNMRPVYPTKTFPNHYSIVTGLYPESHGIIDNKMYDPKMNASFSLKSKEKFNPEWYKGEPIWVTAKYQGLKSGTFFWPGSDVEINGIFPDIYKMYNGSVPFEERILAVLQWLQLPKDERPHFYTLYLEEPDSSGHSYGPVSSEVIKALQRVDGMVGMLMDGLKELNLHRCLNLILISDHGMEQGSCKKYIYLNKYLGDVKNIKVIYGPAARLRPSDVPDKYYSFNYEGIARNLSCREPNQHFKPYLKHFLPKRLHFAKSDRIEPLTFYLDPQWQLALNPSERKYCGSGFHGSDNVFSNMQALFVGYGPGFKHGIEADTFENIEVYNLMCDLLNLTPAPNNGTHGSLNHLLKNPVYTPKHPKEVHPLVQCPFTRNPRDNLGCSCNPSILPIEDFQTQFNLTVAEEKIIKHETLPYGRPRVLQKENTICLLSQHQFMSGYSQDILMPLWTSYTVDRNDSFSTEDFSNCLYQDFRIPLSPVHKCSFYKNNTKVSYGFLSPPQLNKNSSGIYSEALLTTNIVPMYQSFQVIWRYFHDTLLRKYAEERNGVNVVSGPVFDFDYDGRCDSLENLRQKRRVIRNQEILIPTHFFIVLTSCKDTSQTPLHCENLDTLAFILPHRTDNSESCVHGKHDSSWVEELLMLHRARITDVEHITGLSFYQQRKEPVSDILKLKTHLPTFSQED
The data set can be described thus: Uncompetitive inhibition of human recombinant NPP1 expressed in insect SF9 cells using ATP as substrate up to 2.8 uM preincubated with substrate followed by protein addition and subsequent incubation for 30 mins by Hanes-Woolf plot analysis.

The nature of data set [6]: Chemical stability of the compound assessed as compound remaining at pH 7.4 at 25 to 37 degC after 8 to 24 hrs by HPLC-MS analysis. Type of data set: physicochemical. The note with it: buffer.
Data set [7] is described as follows: Retention time of the compound in MgCl2/CaCl2/CHES buffer at pH 9 by LC-MS analysis. It is filed as physicochemical.
The species named for data set [8] is Homo sapiens. As to the kind of experiment: Selectivity ratio of Ki for human recombinant soluble NTPDase2 to Ki for human recombinant NPP1.
The species named for data set [9] is Homo sapiens. The data set can be described thus: Selectivity ratio of Ki for human recombinant TNAP to Ki for human recombinant NPP1.
Data set [10] concerns the target T2, Ectonucleotide pyrophosphatase/phosphodiesterase family member 1 (Homo sapiens, UniProt P22413).
T2 sequence (P22413 whole entry): T1 sequence (whole entry)
The data set can be described thus: Inhibition of human recombinant NPP1 expressed in insect SF9 cells using ATP as substrate preincubated with substrate followed by protein addition and subsequent incubation for 30 mins by capillary electrophoresis.

The target of data set [11] is T3, Ectonucleoside triphosphate diphosphohydrolase 1 (Homo sapiens) (UniProt P49961).
T3 sequence (whole entry): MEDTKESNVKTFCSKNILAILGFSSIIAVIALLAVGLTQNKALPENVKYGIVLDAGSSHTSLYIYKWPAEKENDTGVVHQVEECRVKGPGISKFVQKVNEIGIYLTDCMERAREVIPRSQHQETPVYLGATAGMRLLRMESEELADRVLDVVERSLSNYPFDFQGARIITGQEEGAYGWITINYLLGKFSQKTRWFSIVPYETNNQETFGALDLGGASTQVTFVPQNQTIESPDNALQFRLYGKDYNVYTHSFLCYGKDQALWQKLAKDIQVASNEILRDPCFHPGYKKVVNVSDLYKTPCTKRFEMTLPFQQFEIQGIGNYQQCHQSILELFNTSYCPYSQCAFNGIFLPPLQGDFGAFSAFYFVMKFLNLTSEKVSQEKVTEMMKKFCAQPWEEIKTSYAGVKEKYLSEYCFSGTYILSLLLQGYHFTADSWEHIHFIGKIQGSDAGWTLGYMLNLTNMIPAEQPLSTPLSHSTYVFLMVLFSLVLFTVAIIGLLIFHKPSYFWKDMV
As to the kind of experiment: Inhibition of human recombinant soluble NTPDase1 expressed in CHO cells using ATP as substrate at 10 to 1000 uM preincubated with substrate followed by protein addition and subsequent incubation for 30 mins by capillary electrophoresis.

In data set [12] the target is T4, Alkaline phosphatase, tissue-nonspecific isozyme (Homo sapiens) (UniProt P05186).
T4 sequence (whole entry): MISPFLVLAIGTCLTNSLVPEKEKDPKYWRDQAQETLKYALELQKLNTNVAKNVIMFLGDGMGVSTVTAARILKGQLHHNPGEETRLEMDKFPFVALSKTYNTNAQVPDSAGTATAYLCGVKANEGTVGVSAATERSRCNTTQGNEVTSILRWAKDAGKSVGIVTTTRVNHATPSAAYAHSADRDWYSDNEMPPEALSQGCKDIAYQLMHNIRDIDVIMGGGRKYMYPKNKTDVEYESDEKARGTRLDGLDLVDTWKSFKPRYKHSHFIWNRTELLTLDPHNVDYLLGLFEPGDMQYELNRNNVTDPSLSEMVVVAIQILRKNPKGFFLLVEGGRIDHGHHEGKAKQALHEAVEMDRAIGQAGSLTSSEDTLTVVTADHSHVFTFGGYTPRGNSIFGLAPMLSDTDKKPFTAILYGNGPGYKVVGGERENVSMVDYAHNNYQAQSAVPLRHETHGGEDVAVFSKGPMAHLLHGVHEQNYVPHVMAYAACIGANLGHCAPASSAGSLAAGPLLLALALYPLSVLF
The data set can be described thus: Inhibition of human recombinant TNAP expressed in NS0 cells using p-nitrophenyl phosphate as substrate at 10 to 1000 uM preincubated with substrate followed by protein addition and subsequent incubation for 30 mins by colorimetric analysis.

The species entered for data set [13] is Homo sapiens. As to the kind of experiment: Selectivity ratio of Ki for human recombinant NPP2 to Ki for human recombinant NPP1.

The source made the active and inactive calls. The rule behind the calls is not given here.

5'-nucleotidase (Homo sapiens), sequence (P21589 whole entry): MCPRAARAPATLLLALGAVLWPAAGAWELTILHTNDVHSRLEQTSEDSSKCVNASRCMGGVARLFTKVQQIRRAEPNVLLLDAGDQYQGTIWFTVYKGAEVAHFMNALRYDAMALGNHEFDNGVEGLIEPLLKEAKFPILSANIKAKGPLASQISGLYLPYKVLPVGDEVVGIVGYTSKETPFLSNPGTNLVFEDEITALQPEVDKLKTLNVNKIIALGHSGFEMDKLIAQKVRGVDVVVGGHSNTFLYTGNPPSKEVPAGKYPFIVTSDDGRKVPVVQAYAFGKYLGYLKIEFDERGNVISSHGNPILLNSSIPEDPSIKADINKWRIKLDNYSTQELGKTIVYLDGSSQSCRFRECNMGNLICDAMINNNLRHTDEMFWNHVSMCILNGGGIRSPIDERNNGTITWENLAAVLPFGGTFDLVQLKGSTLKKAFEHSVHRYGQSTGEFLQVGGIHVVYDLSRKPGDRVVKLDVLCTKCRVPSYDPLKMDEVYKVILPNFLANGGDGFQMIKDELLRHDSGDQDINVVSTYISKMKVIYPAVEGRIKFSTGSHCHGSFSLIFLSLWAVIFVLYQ

The term Ki denotes the equilibrium dissociation constant of an inhibitor or competing ligand from its target. `O=c1/c(=C/c2ccc(I)o2)sc2nc3ccccc3n12`: the Drug metabolism result in data set [1] is “metabolite_detected”. Further, in data set [2], the remaining at 8 h was 70.5%. Moreover, the Ratio Ki in the data set filed under Homo sapiens [3], in the data set listed under Homo sapiens [8], in the data set listed under Homo sapiens [9] and in the data set listed under Homo sapiens [13] was 1000 each time. The inhibition result in [4] and in data set [5] was “Active” each time. In addition, the Stability entry in data set [6] is listed as “Stable”. Moreover, the Retention_time in [7] stood at 8.2 min. Besides, the inhibitory constant (Ki) in data set [10] was found to be 467 nM. Moreover, the inhibition result in data set [11] and in data set [12] was “inactive” each time.
